Data taken from US20250186437A1, “CARBOLINE COMPOUNDS AND USE THEREOF” (PTC Therapeutics, Inc., priority 2021, published 2025).

Test system: MOLM-13 cells
Assay: MOLM-13 Cell Proliferation Assay (indicator of DHODH inhibition)
Assay type: cell-based
Settings: Homo sapiens, 72 Hours of culture, CellTiter-Glo, no uridine
Procedure, shortened: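 Low-passage MOLM-13 cells (10^4/well) in RPMI 1640 + 10% FBS exposed to compound (0.5% DMSO final) for 72 h at 37 °C, 5% CO2. Viability read by CellTiter-Glo luminescence; growth reflects de novo pyrimidine synthesis dependent on DHODH.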

IC50	Structure (SMILES)
20.3 nM	Cc1ccc([C@@H]2c3[nH]c4ccc(Cl)cc4c3CCN2c2ncc(F)c(C)n2)c(F)c1F [Compound 187, (1R)-6-chloro-1-(2,3-difluoro-4-methylphenyl)-2-(5-fluoro-4-methylpyrimidin-2-yl)-2,3,4,9-tetrahydro-1H-pyrido[3,4-b]indole]
2.7 nM	FC(F)(F)c1nc(N2CCOCC2)nc(N2CCc3c([nH]c4ccc(Cl)cc34)[C@@H]2c2ccc(N3CCOCC3)nc2)n1 [Compound 446, (1S)-6-chloro-1-[6-(morpholin-4-yl)pyridin-3-yl]-2-[4-(morpholin-4-yl)-6-(trifluoromethyl)-1,3,5-triazin-2-yl]-2,3,4,9-tetrahydro-1H-pyrido[3,4-b]indole]
1.3 nM	FC(F)(F)c1ccnc(N2CCc3c([nH]c4ccc(Cl)cc34)C2c2ccc(N3CCOCC3)cc2)n1 (stereo not drawn) [Compound 262, 6-chloro-1-[4-(morpholin-4-yl)phenyl]-2-[4-(trifluoromethyl)pyrimidin-2-yl]-2,3,4,9-tetrahydro-1H-pyrido[3,4-b]indole]
4.7 nM	Cc1nc(N2CCc3c([nH]c4ccc(Cl)cc34)C2c2ccc(N3CCOCC3)nc2)nc(C)c1F (stereo not drawn) [Compound 367, 6-chloro-2-(5-fluoro-4,6-dimethylpyrimidin-2-yl)-1-[6-(morpholin-4-yl)pyridin-3-yl]-2,3,4,9-tetrahydro-1H-pyrido[3,4-b]indole]
7 nM	COc1ccc2[nH]c3c(c2c1)CCN(c1nccc(C(F)(F)F)n1)C3c1cnc(N2CCOCC2)nc1 (stereo not drawn) [Compound 302, 6-methoxy-1-[2-(morpholin-4-yl)pyrimidin-5-yl]-2-[4-(trifluoromethyl)pyrimidin-2-yl]-2,3,4,9-tetrahydro-1H-pyrido[3,4-b]indole]
7.6 nM	Cc1ccc([C@H]2c3[nH]c4ccc(Cl)cc4c3CCN2c2nc(F)nc(N3CCN(C)CC3)n2)c(F)c1F [Compound 476, (1S)-6-chloro-1-(2,3-difluoro-4-methylphenyl)-2-[4-fluoro-6-(4-methylpiperazin-1-yl)-1,3,5-triazin-2-yl]-2,3,4,9-tetrahydro-1H-pyrido[3,4-b]indole]
3.7 nM	COc1ccc(C2c3[nH]c4ccc(Cl)cc4c3CCN2c2nccc(C(F)(F)F)n2)c(F)c1F (stereo not drawn) [Compound 120, 6-chloro-1-(2,3-difluoro-4-methoxyphenyl)-2-[4-(trifluoromethyl)pyrimidin-2-yl]-2,3,4,9-tetrahydro-1H-pyrido[3,4-b]indole]
1.5 nM	Fc1cc2[nH]c3c(c2cc1Cl)CCN(c1nccc(C(F)(F)F)n1)C3c1ccc(Br)c(F)c1F (stereo not drawn) [Compound 172, 1-(4-bromo-2,3-difluorophenyl)-6-chloro-7-fluoro-2-[4-(trifluoromethyl)pyrimidin-2-yl]-2,3,4,9-tetrahydro-1H-pyrido[3,4-b]indole]
1.4 nM	CCCCOC(=O)c1ccnc(N2CCc3c([nH]c4ccc(Cl)cc34)C2c2ccc(C)c(F)c2F)n1 (stereo not drawn) [Compound 281, butyl 2-[6-chloro-1-(2,3-difluoro-4-methylphenyl)-1,3,4,9-tetrahydro-2H-pyrido[3,4-b]indol-2-yl]pyrimidine-4-carboxylate]
27.1 nM	Cc1nc(Cl)nc(N2CCc3c([nH]c4ccc(Cl)cc34)C2c2cnc(N3CCOCC3)nc2)n1 (stereo not drawn) [Compound 289, 6-chloro-2-(4-chloro-6-methyl-1,3,5-triazin-2-yl)-1-[2-(morpholin-4-yl)pyrimidin-5-yl]-2,3,4,9-tetrahydro-1H-pyrido[3,4-b]indole]
2.1 nM	Cc1nc(N2CCc3c([nH]c4ccc(Cl)cc34)C2c2cnc(N3CCOCC3)nc2)nc(C(F)(F)F)n1 (stereo not drawn) [Compound 440, 6-chloro-2-[4-methyl-6-(trifluoromethyl)-1,3,5-triazin-2-yl]-1-[2-(morpholin-4-yl)pyrimidin-5-yl]-2,3,4,9-tetrahydro-1H-pyrido[3,4-b]indole]
0.6 nM	Cc1ccc([C@H]2c3[nH]c4ccc(Cl)cc4c3CCN2c2nc(N3CCOCC3)nc(C(F)(F)F)n2)c(F)c1F [Compound 436, (1S)-6-chloro-1-(2,3-difluoro-4-methylphenyl)-2-[4-(morpholin-4-yl)-6-(trifluoromethyl)-1,3,5-triazin-2-yl]-2,3,4,9-tetrahydro-1H-pyrido[3,4-b]indole]
1.2 nM	FC(F)(F)c1ccnc(N2CCc3c([nH]c4ccc(Br)cc34)C2c2cnc(N3CCOCC3)nc2)n1 (stereo not drawn) [Compound 298, 6-bromo-1-[2-(morpholin-4-yl)pyrimidin-5-yl]-2-[4-(trifluoromethyl)pyrimidin-2-yl]-2,3,4,9-tetrahydro-1H-pyrido[3,4-b]indole]
3.6 nM	Cc1ccnc(N2CCc3c([nH]c4cc(F)c(Cl)cc34)C2c2ccc(C)c(F)c2F)n1 (stereo not drawn) [Compound 139, 6-chloro-1-(2,3-difluoro-4-methylphenyl)-7-fluoro-2-(4-methylpyrimidin-2-yl)-2,3,4,9-tetrahydro-1H-pyrido[3,4-b]indole]
0.4 nM	Cc1cc(C(F)(F)F)nc(N2CCc3c([nH]c4ccc(Cl)c(F)c34)C2c2ccc(C)c(F)c2F)n1 (stereo not drawn) [Compound 206, 6-chloro-1-(2,3-difluoro-4-methylphenyl)-5-fluoro-2-[4-methyl-6-(trifluoromethyl)pyrimidin-2-yl]-2,3,4,9-tetrahydro-1H-pyrido[3,4-b]indole]

The next lines start with the compound.

Structure (SMILES)	IC50
Cc1ccnc(N2CCc3c([nH]c4cc(F)c(Cl)cc34)C2c2cnc(N(C)C)nc2)n1 (stereo not drawn) [Compound 94, 5-[6-chloro-7-fluoro-2-(4-methylpyrimidin-2-yl)-2,3,4,9-tetrahydro-1H-pyrido[3,4-b]indol-1-yl]-N,N-dimethylpyrimidin-2-amine]	22.2 nM
Cc1cnc(N2CCc3c([nH]c4ccc(Cl)c(F)c34)C2c2ccc(C)c(F)c2F)nc1 (stereo not drawn) [Compound 137, 6-chloro-1-(2,3-difluoro-4-methylphenyl)-5-fluoro-2-(5-methylpyrimidin-2-yl)-2,3,4,9-tetrahydro-1H-pyrido[3,4-b]indole]	2.4 nM
Fc1ccc(C2c3[nH]c4ccc(Cl)c(F)c4c3CCN2c2ncc(F)cn2)cc1 (stereo not drawn) [Compound 51, 6-chloro-5-fluoro-1-(4-fluorophenyl)-2-(5-fluoropyrimidin-2-yl)-2,3,4,9-tetrahydro-1H-pyrido[3,4-b]indole]	21.6 nM
Oc1c(F)cccc1C1c2[nH]c3ccc(Cl)cc3c2CCN1c1nccc(C(F)(F)F)n1 (stereo not drawn) [Compound 252, 2-{6-chloro-2-[4-(trifluoromethyl)pyrimidin-2-yl]-2,3,4,9-tetrahydro-1H-pyrido[3,4-b]indol-1-yl}-6-fluorophenol]	2 nM
N#Cc1nc(N2CCc3c([nH]c4cc(F)c(Cl)cc34)C2c2cccc(F)c2F)ncc1F (stereo not drawn) [Compound 183, 2-[6-chloro-1-(2,3-difluorophenyl)-7-fluoro-1,3,4,9-tetrahydro-2H-pyrido[3,4-b]indol-2-yl]-5-fluoropyrimidine-4-carbonitrile]	4.5 nM
CN(C)c1ncc(C2c3[nH]c4cc(F)c(Cl)cc4c3CCN2c2ncc(F)cn2)cn1 (stereo not drawn) [Compound 14, 5-[6-chloro-7-fluoro-2-(5-fluoropyrimidin-2-yl)-2,3,4,9-tetrahydro-1H-pyrido[3,4-b]indol-1-yl]-N,N-dimethylpyrimidin-2-amine]	30.2 nM
Fc1cnc(N2CCc3c([nH]c4cc(F)c(Cl)cc34)C2c2cccc(F)c2F)nc1 (stereo not drawn) [Compound 36, 6-chloro-1-(2,3-difluorophenyl)-7-fluoro-2-(5-fluoropyrimidin-2-yl)-2,3,4,9-tetrahydro-1H-pyrido[3,4-b]indole]	23.4 nM
COC(=O)c1ccnc(N2CCc3c([nH]c4ccc(Cl)c(F)c34)C2c2ccc(Cl)cc2)n1 (stereo not drawn) [Compound 87, methyl 2-[6-chloro-1-(4-chlorophenyl)-5-fluoro-1,3,4,9-tetrahydro-2H-pyrido[3,4-b]indol-2-yl]pyrimidine-4-carboxylate]	7.9 nM
Cc1ccc(C2c3[nH]c4c(O)cc(Cl)cc4c3CCN2c2nccc(C(F)(F)F)n2)cc1 (stereo not drawn) [Compound 207, 6-chloro-1-(4-methylphenyl)-2-[4-(trifluoromethyl)pyrimidin-2-yl]-2,3,4,9-tetrahydro-1H-pyrido[3,4-b]indol-8-ol]	2.2 nM
Fc1c(Cl)ccc2[nH]c3c(c12)CCN(c1nccc(C(F)(F)F)n1)C3c1ccc(Cl)cc1 (stereo not drawn) [Compound 73, 6-chloro-1-(4-chlorophenyl)-5-fluoro-2-[4-(trifluoromethyl)pyrimidin-2-yl]-2,3,4,9-tetrahydro-1H-pyrido[3,4-b]indole]	4.1 nM
Cc1nc(C)nc(N2CCc3c([nH]c4ccc([N+](=O)[O-])cc34)C2c2cnc(N3CCOCC3)nc2)n1 (stereo not drawn) [Compound 313, 2-(4,6-dimethyl-1,3,5-triazin-2-yl)-1-[2-(morpholin-4-yl)pyrimidin-5-yl]-6-nitro-2,3,4,9-tetrahydro-1H-pyrido[3,4-b]indole]	18.1 nM
Fc1cnc(N2CCc3c([nH]c4ccc(Cl)c(F)c34)C2c2ccc(C(F)(F)F)cc2)nc1 (stereo not drawn) [Compound 67, 6-chloro-5-fluoro-2-(5-fluoropyrimidin-2-yl)-1-[4-(trifluoromethyl)phenyl]-2,3,4,9-tetrahydro-1H-pyrido[3,4-b]indole]	19.1 nM
Cc1ccnc(N2CCc3c([nH]c4cc(F)c(Cl)cc34)C2c2ccc(Cl)cc2)n1 (stereo not drawn) [Compound 38, 6-chloro-1-(4-chlorophenyl)-7-fluoro-2-(4-methylpyrimidin-2-yl)-2,3,4,9-tetrahydro-1H-pyrido[3,4-b]indole]	24.3 nM
Nc1ncc(C2c3[nH]c4ccc(Cl)c(F)c4c3CCN2c2nccc(C(F)(F)F)n2)cn1 (stereo not drawn) [Compound 225, 5-{6-chloro-5-fluoro-2-[4-(trifluoromethyl)pyrimidin-2-yl]-2,3,4,9-tetrahydro-1H-pyrido[3,4-b]indol-1-yl}pyrimidin-2-amine]	18.3 nM
N#Cc1ccc(C2c3[nH]c4cc(F)c(Cl)cc4c3CCN2c2nccc(C#N)n2)cc1 (stereo not drawn) [Compound 64, 2-[6-chloro-1-(4-cyanophenyl)-7-fluoro-1,3,4,9-tetrahydro-2H-pyrido[3,4-b]indol-2-yl]pyrimidine-4-carbonitrile]	67.5 nM
